For data set [1], the target named is Muscarinic acetylcholine receptor M1 (Homo sapiens) (UniProt P11229). To be noted: Compound concentration 10.0 uM.
The target of data set [2] is L-type voltage-gated calcium channel (dihydropyridine site), Cav1.2 alpha-1C (Rattus norvegicus, UniProt P22002). In words: CA+/DHPSI/R Cerep selectivity data (BI). Set-up: mode of action inhibitor. To be noted: rat brain, probe [3H](+)PN200-110, compound concentration 10 uM, read-out: % Ctrl.
The subject of data set [3] is Mast/stem cell growth factor receptor Kit (Homo sapiens), P10721 [L576P]. To be noted: Compound concentration 1000.0 nM.
For data set [4], the target named is Delta-type opioid receptor (Homo sapiens) (UniProt P41143). Put plainly: DELTA2/H Cerep selectivity data (BI). To be noted: Compound concentration 10.0 uM.
Data set [5] deals with 5-hydroxytryptamine receptor 1B (Rattus norvegicus) (UniProt P28564). In words: 5HT1B/R Cerep selectivity data (BI). To be noted: Compound concentration 10.0 uM.
Data set [6] concerns the target Adenosine receptor A2a (Homo sapiens) (UniProt P29274). In words: A2A/H Cerep selectivity data (BI). To be noted: filed as antagonist, Compound concentration 10.0 uM.
The target of data set [7] is Histamine H2 receptor (Homo sapiens) (UniProt P25021). Put plainly: H2/APT/HS Cerep selectivity data (BI). To be noted: filed as antagonist, Compound concentration 10.0 uM.
Data set [8] addresses Androgen receptor (Homo sapiens) (UniProt P10275). In words: ANDROGEN/H Cerep selectivity data (BI). To be noted: Compound concentration 10.0 uM.
Data set [9] addresses Histamine H1 receptor (Homo sapiens) (UniProt P35367). Put plainly: H1/PYRIL/HS Cerep selectivity data (BI). To be noted: Compound concentration 10.0 uM.
In data set [10] the target is Cholecystokinin receptor type A (Homo sapiens) (UniProt P32238). In words: CCKA/H Cerep selectivity data (BI). To be noted: Compound concentration 10.0 uM.
In data set [11] the target is D(2) dopamine receptor (Homo sapiens) (UniProt P14416). To be noted: Compound concentration 10.0 uM.
Data set [12] deals with Muscarinic acetylcholine receptor M1 (Homo sapiens) (UniProt P11229). In words: M1/H Cerep selectivity data (BI). To be noted: Compound concentration 10.0 uM.
In data set [13] the target is Homeodomain-interacting protein kinase 2 (Homo sapiens) (UniProt Q9H2X6). To be noted: Compound concentration 1000.0 nM.
Homeodomain-interacting protein kinase 2 (Homo sapiens), sequence (Q9H2X6 whole entry, looked up): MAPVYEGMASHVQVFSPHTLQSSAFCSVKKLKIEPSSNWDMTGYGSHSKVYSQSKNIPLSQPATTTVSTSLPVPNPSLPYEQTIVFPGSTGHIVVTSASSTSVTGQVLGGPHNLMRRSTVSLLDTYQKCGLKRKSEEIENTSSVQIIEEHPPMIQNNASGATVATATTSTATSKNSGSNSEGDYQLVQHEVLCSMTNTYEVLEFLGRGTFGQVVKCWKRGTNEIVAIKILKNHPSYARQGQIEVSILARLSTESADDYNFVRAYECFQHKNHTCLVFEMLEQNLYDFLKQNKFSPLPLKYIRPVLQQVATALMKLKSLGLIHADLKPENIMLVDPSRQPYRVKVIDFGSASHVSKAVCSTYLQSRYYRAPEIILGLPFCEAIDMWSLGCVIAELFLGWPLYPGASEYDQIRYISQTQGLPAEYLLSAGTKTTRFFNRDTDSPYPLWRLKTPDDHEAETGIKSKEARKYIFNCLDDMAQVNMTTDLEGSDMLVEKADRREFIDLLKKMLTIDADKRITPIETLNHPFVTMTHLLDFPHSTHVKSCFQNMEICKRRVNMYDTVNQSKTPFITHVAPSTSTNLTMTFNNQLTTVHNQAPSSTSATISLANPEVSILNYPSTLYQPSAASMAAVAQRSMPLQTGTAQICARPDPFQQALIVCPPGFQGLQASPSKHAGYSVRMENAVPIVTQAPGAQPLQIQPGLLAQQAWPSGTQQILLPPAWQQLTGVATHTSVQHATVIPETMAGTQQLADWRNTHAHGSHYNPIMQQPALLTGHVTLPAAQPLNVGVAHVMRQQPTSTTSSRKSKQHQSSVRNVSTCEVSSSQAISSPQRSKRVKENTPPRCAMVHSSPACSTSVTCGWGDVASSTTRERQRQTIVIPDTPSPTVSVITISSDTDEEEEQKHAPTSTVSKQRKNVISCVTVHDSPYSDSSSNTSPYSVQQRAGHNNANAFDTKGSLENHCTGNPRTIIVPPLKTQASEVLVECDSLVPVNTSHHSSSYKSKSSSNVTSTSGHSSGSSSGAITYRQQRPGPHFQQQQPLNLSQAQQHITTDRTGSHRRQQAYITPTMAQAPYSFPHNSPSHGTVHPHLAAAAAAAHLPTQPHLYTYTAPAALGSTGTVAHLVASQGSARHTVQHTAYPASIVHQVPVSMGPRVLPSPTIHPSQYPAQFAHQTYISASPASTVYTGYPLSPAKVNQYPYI
Data set [14] has as its target Mitogen-activated protein kinase kinase kinase 19 (Homo sapiens) (UniProt Q56UN5). To be noted: Compound concentration 1000.0 nM.
The target of data set [15] is Angiotensin-converting enzyme (Homo sapiens) (UniProt P12821). In words: ACE(HU_AMTCH400) Cerep selectivity data (BI). To be noted: Compound concentration 10.0 uM.
The target of data set [16] is MAO-A (amine oxidase [flavin-containing] A) (Rattus norvegicus, UniProt P21396). In words: MAO-A_ANTAG Cerep selectivity data (BI). To be noted: compound concentration 10 uM, read-out: % Ctrl. On the set-up: mode of action antagonist; scale not given: the % may be the effect or the level left.
The target in data set [17] is Serine/threonine-protein kinase PAK 4 (Homo sapiens) (UniProt O96013). To be noted: Compound concentration 1000.0 nM.
Serine/threonine-protein kinase PAK 4 (Homo sapiens), sequence (O96013 whole entry, looked up): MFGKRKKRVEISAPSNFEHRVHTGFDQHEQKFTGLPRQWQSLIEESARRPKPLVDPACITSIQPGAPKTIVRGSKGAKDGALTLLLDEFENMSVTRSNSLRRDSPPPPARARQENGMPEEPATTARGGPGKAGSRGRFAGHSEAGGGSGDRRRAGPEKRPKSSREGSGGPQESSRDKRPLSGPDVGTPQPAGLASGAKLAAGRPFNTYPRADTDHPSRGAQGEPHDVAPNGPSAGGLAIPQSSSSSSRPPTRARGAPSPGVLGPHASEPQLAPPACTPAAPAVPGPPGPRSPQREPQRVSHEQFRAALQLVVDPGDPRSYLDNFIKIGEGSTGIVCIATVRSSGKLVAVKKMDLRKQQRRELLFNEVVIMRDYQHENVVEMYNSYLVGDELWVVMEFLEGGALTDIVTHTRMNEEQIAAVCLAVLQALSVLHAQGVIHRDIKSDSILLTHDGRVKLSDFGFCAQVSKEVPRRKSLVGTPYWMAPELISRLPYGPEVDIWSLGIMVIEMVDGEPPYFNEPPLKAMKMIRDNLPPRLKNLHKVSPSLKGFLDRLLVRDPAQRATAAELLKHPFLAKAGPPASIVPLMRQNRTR
The target in data set [18] is 5-hydroxytryptamine receptor 2B (Homo sapiens) (UniProt P41595). Put plainly: 5HT2B/H AG Cerep selectivity data (BI). To be noted: filed as agonist, Compound concentration 10.0 uM.
Data set [19] has as its target Muscarinic acetylcholine receptor M3 (Homo sapiens) (UniProt P20309). In words: M3/H Cerep selectivity data (BI). To be noted: Compound concentration 10.0 uM.
Data set [20] deals with Glucocorticoid receptor (Homo sapiens) (UniProt P04150). Put plainly: GCORTICOID/H Cerep selectivity data (BI). To be noted: Compound concentration 10.0 uM.
The target in data set [21] is Potassium voltage-gated channel subfamily V member 1 (Rattus norvegicus) (UniProt P97557). In words: K+/VOLT/RA Cerep selectivity data (BI). To be noted: Compound concentration 10.0 uM.
In data set [22] the target is Beta-2 adrenergic receptor (Homo sapiens) (UniProt P07550). In words: BETA2/HUM Cerep selectivity data (BI). To be noted: filed as antagonist, Compound concentration 10.0 uM.
Data set [23] addresses Kappa-type opioid receptor (Rattus norvegicus) (UniProt P34975). In words: KAPPA/R Cerep selectivity data (BI). To be noted: Compound concentration 10.0 uM.
The test system of data set [24] is Phosphatidylinositol 4,5-bisphosphate 3-kinase catalytic subunit alpha isoform (Homo sapiens), P42336 [I800L]. To be noted: Compound concentration 1000.0 nM.
Phosphatidylinositol 4,5-bisphosphate 3-kinase catalytic subunit alpha isoform (Homo sapiens), P42336 [I800L], sequence (P42336 whole entry I800L, canonical isoform): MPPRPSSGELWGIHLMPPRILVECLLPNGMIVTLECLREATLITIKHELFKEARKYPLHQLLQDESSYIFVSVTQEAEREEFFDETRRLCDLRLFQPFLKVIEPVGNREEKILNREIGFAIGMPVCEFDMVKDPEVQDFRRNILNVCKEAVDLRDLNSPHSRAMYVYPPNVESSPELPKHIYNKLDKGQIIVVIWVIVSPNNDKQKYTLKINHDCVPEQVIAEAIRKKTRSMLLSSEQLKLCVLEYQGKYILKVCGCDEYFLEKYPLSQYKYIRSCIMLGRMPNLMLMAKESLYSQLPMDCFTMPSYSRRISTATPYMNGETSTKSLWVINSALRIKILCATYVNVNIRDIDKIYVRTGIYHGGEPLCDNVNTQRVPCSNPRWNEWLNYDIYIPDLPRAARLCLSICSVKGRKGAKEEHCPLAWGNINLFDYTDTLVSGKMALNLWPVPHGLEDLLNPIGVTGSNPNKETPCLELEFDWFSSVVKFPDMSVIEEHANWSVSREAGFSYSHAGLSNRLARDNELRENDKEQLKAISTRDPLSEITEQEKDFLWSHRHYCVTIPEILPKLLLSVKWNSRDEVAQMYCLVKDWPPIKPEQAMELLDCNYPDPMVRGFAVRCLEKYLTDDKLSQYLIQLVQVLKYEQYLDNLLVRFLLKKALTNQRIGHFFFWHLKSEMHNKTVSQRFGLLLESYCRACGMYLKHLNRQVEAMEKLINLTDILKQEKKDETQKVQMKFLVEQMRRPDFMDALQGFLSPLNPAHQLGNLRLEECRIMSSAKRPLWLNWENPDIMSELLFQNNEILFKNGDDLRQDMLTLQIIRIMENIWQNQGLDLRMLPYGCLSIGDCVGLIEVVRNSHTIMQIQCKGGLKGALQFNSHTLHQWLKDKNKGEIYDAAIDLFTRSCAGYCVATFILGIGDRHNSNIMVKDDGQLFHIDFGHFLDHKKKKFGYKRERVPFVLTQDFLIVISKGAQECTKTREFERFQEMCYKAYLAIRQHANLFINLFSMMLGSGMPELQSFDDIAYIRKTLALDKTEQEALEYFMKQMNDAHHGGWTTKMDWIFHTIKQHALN
The target in data set [25] is Interleukin-1 receptor-associated kinase 4 (Homo sapiens) (UniProt Q9NWZ3). To be noted: Compound concentration 1000.0 nM.
Data set [26] deals with Sodium-dependent dopamine transporter (Homo sapiens) (UniProt Q01959). To be noted: Compound concentration 10.0 uM.
Sodium-dependent dopamine transporter (Homo sapiens), sequence (Q01959 whole entry): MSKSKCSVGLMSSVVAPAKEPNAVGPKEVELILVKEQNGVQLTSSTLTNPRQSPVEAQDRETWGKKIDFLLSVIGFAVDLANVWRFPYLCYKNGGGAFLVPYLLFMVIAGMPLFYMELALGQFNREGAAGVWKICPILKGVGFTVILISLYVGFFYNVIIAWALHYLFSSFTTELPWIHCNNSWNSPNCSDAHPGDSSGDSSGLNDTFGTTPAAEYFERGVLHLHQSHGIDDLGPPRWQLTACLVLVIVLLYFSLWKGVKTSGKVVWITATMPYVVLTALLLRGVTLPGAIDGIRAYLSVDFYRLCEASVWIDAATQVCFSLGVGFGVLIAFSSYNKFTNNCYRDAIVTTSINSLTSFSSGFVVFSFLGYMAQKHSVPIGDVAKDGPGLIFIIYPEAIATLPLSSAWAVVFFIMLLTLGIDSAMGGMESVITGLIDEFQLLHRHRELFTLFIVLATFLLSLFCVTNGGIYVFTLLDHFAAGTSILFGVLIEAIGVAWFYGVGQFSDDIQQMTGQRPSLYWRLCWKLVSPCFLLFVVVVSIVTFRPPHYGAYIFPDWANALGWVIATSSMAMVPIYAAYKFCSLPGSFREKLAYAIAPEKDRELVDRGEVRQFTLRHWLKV
Data set [27] concerns the target T1, 5-hydroxytryptamine receptor 1A (Homo sapiens) (UniProt P08908).
T1 sequence (whole entry): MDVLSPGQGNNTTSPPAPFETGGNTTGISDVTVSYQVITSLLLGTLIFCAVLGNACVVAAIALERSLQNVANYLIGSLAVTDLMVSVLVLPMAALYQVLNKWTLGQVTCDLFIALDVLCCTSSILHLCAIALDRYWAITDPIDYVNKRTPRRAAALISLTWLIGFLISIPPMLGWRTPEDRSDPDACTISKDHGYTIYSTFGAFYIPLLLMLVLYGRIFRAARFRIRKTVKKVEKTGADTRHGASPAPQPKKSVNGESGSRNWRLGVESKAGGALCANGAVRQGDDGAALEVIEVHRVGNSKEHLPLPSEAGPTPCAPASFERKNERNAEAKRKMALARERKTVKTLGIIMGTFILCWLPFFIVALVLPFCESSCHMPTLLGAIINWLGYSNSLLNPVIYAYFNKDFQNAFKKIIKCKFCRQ
Put plainly: 5HT1A/H Cerep selectivity data (BI). To be noted: Compound concentration 10.0 uM.

Data set [28] deals with T2, Alpha-1A adrenergic receptor (Homo sapiens) (UniProt P35348).
T2 sequence (whole entry): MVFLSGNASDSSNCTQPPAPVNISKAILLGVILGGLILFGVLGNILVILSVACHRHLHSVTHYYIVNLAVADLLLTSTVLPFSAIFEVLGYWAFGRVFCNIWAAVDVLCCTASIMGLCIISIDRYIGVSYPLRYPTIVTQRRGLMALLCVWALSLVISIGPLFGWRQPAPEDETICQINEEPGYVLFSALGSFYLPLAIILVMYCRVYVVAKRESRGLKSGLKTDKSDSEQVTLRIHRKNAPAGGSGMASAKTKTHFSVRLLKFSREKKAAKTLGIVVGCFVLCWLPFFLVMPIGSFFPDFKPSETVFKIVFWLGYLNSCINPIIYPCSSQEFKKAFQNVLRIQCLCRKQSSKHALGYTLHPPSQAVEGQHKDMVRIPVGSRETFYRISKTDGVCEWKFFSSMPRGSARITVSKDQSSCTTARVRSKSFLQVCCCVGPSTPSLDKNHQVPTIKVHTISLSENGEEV
Put plainly: ALPHA1AH_ANTAG Cerep selectivity data (BI). To be noted: filed as antagonist, Compound concentration 10.0 uM.

Data set [29] deals with Sodium-dependent dopamine transporter (Homo sapiens) (UniProt Q01959). Put plainly: DATRANS/HUM Cerep selectivity data (BI). To be noted: Compound concentration 10.0 uM.
Data set [30] deals with 5-hydroxytryptamine receptor 2A (Homo sapiens, UniProt P28223). Put plainly: 5HT2AH_AGON Cerep selectivity data (BI). To be noted: filed as agonist, Compound concentration 10.0 uM.
For data set [31], the target named is Prostaglandin G/H synthase 1 (Homo sapiens) (UniProt P23219). Put plainly: COX-1 Cerep selectivity data (BI). To be noted: Compound concentration 10.0 uM.
Data set [32] deals with Beta-1 adrenergic receptor (Homo sapiens) (UniProt P08588). Put plainly: BETA1/HUM Cerep selectivity data (BI). To be noted: Compound concentration 10.0 uM.
For data set [33], the target named is Autotaxin (Homo sapiens, UniProt Q13822). In words: Biochemical assay: measurement of LPA (human).

2 compounds from ChEMBL document CHEMBL4507275, “Data for DCP probe BI-2545” (2021) can be followed below.

Calls of active or inactive are those of the source. The calls are words filed in the database; no cut-off is given here.

Muscarinic acetylcholine receptor M1 (Homo sapiens), sequence (P11229 whole entry): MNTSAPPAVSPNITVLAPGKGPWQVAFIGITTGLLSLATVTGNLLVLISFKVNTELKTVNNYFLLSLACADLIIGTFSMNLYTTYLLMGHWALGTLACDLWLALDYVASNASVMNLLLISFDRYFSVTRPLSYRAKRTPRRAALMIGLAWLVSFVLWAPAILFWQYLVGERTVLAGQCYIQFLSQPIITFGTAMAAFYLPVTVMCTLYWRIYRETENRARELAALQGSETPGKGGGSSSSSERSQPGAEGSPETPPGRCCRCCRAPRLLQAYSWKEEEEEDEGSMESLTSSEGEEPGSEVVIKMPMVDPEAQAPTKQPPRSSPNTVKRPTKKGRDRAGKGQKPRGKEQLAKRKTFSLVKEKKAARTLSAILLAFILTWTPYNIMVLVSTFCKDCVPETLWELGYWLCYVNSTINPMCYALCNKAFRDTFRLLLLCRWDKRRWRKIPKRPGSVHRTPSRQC
Mast/stem cell growth factor receptor Kit (Homo sapiens), P10721 [L576P], sequence (P10721 whole entry L576P): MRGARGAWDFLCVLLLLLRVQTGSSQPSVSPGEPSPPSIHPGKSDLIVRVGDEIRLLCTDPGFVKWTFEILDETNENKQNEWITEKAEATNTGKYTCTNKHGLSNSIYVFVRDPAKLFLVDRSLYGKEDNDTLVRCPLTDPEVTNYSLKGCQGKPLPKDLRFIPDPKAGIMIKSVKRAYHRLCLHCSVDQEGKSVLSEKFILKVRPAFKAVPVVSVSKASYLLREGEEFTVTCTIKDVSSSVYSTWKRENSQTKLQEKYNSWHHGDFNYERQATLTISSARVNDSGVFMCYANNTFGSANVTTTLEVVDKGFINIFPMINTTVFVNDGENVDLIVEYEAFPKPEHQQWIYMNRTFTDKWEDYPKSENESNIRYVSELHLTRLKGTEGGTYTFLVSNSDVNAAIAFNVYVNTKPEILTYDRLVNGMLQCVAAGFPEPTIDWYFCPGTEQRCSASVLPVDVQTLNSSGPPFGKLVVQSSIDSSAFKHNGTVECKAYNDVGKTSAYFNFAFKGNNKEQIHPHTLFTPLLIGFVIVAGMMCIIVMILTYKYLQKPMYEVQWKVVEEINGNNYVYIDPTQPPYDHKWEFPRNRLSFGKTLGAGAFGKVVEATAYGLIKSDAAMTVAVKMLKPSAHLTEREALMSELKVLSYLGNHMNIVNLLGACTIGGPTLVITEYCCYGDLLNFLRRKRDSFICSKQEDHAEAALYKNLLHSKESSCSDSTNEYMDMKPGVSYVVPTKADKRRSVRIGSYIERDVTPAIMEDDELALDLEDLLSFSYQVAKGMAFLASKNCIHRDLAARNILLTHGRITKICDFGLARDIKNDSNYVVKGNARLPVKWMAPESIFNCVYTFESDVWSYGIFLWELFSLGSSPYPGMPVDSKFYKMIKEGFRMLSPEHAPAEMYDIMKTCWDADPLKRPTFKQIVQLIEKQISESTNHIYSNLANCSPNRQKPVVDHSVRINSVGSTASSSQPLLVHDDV

Regarding `O=C(NC[C@@H]1[C@H]2CN(C(=O)OCc3cc(C(F)(F)F)cc(C(F)(F)F)c3)C[C@@H]12)c1ccc2[nH]nnc2c1` [BI 2545], the inhibition in [1] is -2.87%; in [11] it was 7.71%; in data set [26], -2.65%. Also, the values for the activity at 10 µM in [2] and in [16] were 20% (active) and 70% (not active), respectively. Also, the residual activity in data set [3] is 92%; in data set [4], 82%; in data set [5] it was 92%; in [6] it was 107%; in [7], 110%; in data set [8], 103%. The residual activity in data set [9] was 101%; in data set [10], 51%; in [12], 97%; in [13] it was 100%; in [14], 100%; in [15], 109%. For the same compound, the residual activity in data set [17] was 100%; in [18], 54%; in [19], 100%; in [20], 99%; in data set [21] it was 103%; in [22], 96%. In addition, the residual activity in [23] was 68%; in data set [24] it was 83%; in data set [25], 100%; in [27], 83%; in [28] it was 87%; in data set [29], 57%. For the same compound, the residual activity in [30] is 45%; in [31], 82%; in [32], 98%.
With `Cc1nccc(COC(=O)N2C[C@@H]3[C@@H](CNC(=O)c4ccc5[nH]nnc5c4)[C@@H]3C2)n1` [BI 3017], the residual activity is 89% in data set [3]; 81% in [13]; 90% in [14]; 100% in data set [17]; 73% in [24]; 87% in [25]. Besides, the IC50 in data set [33] is recorded as 8.9 µM (not active).
